The values that follow come from patent US9469616B2, “Cyclic compounds and methods of making and using the same” (Cellceutix Corporation, priority 2011, dated 2016).

This data set deals with human RBCs. It counts as cell-based. To be noted: 1 h, pH 7.4. An excerpt: A new series of aryl compounds was designed to evaluate the effect of charge and aromatic group hydrophobicity on the biological activity while still maintaining an amphiphilic topology. Four and six cationic charges were investigated, and three different central rings were used to tune the overall hydrophobicity: benzene, naphthalene, and phenylbenzene. The hydrophobicities of the aryl compounds were quantified using reversed-phase HPLC retention times (Rt). The antimicrobial activities (expressed as minimum inhibitory concentration (MIC)) of these compounds were tested against four pathogens, including both Gram-negative and Gram-positive bacteria, and their hemolysis (evaluated in terms of HC50, the lowest concentration that causes 50% hemolysis of red blood cells (RBCs)) was tested against human RBCs.
Cytotoxicity of the compounds is also evaluated in a hemolysis assay using human erythrocytes. Pooled whole human blood is centrifuged to separate the red blood cells (RBC). The isolated RBCs are rinsed and diluted in Tris-buffered saline (TBS buffer, pH 7.4) to obtain a 0.22% RBC stock suspension. 5 μL of a Compound stock solution is added to 45 μL of RBC suspension and incubated with shaking for 1 hour at 37° C. At the conclusion of the incubation time, samples are centrifuged and 30 μL of the supernatant is added to 100 μL of water. OD414 measurements are read for hemoglobin concentration. The bee venom peptide melittin is used as a positive control. EC50 values are determined as described above.
Cytotoxicity is also evaluated in a hemolysis assay using isolated human erythrocytes. Pooled whole human blood is centrifuged to separate the red blood cells (RBC). The isolated RBCs are rinsed and diluted in Tris-buffered saline (TBS buffer, pH 7.4) to obtain a 0.22% RBC stock suspension. […] OD405 measurements are read for hemoglobin concentration. […] EC50 values are determined using a four parameter logistic equation: Y=Bottom+(Top−Bottom)/(1+10^((Log EC50−X)*HillSlope)).

What is called HC50 is the concentration that lyses half of the red blood cells. Read a high HC50 as weaker haemolysis. `NCCCOc1cc(-c2ccc3ccc(-c4cc(OCCCN)c(OCCCN)c(OCCCN)c4)cc3c2)cc(OCCCN)c1OCCCN` [Compound 116] showed an HC50 of 656 µg/mL.
